Data taken from US8097650B2, “Method of treating a condition associated with phosphorylation of TASK-1” (The Trustees of Columbia University In The City of New York, priority 2005, dated 2012).
Each block holds one compound with its values, some of them ahead of it.

Experiments:
[1] = target: T1, TREK-1 (Homo sapiens, UniProt O95069); test: Human TREK-1 current in CHO cells (ramp clamp); type: cell-based; parameters: expressed in transfected cells; host or cells: CHO cells; conditions: for type of activation of human TREK-1 current: +50 mV, riluzole 100 nM, anisomycin 3.7 μM, CDC 10 μM, tyrphostins 10 μM
T1 sequence (O95069 1-426): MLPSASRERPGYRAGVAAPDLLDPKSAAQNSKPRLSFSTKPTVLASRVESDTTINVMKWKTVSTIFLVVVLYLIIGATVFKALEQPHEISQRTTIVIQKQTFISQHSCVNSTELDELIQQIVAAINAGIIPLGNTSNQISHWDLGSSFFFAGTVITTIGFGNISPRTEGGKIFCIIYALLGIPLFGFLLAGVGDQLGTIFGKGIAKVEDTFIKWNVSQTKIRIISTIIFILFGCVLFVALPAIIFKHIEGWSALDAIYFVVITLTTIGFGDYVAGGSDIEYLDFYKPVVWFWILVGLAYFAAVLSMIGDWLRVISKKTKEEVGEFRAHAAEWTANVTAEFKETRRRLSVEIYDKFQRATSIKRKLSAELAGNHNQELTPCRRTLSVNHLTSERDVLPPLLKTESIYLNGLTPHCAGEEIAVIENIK
Experimental: FIG. 18. Structure-activity analysis of activators of human TREK-1 channel. Human TREK-1 was expressed in CHO cells and current was measured during a ramp protocol (−120 to +50 mV in 6 s). The activation of the current at +50 mV in the presence of various putative TREK-1 activators was measured and summarized in the bar graph as % activation over basal. Various endogenous lipids, most related to lipoxygenase metabolites of either arachidonic acid or linoleic acid, were tested (all at 100 nM).
FIG. 21. CHO cells (hTREK-1, hTASK-1) or HEK cells (mTRAAK) were co-transfected with plasmids encoding one of the two pore domain channels and GFP using the GeneJammer reagent. After 48-60 h, the expressed current was measured using a ramp protocol while the cells were perfused with regular Tyrode's solution containing varying concentrations of ONO-RS-082 (range of concentration from 10 nM to 500 μM as noted in FIG. 21) until a steady state was reached. Each cell was exposed to only one concentration of drug. Panel A: TREK-1 current was determined using a ramp clamp, and the percent increase induced by ONO-RS-082 was measured at the most positive imposed voltage (n≧5). The EC50 for activation was around 3 μM and the basal and ONO-activated current densities are noted. Panel B: TASK-1 current was determined using a ramp clamp in Tyrode's solution at pH=8 and the percent increase induced by ONO-RS-082 was measured at the most positive imposed voltage (n≧4). The EC50 was around 8 μM and the basal and ONO-activated current densities are noted. Panel C: TRAAK current was determined using a ramp clamp, and the percent increase induced by ONO-RS-082 was measured at the most positive imposed voltage (n≧4). The EC50 was around 0.9 μM and the basal and ONO-activated current densities are noted.
Subsequently, the structure-activity analysis of activators of human TREK-1 channel was determined. […] The activation of the current at +50 mV in the presence of various putative TREK-1 activators was measured and summarized in the bar graph as % activation over basal.
CHO cells were transfected with a plasmid encoding human TREK-1 and the current was studied by patch clamp. The current-voltage relation was determined using a ramp protocol that went from −130 mV to +40 mV in 6 s (after correction for the junction potential). […] This is typical of 7 cells.

[2] = test system: murine TASK-1; test: TASK-1 current expressed in CHO cells (whole-cell ramp clamp); type: cell-based, mouse; conditions: αPMA 100 nM
Experimental: The TASK-1 clone (provided by Professor Y. Kurachi, Osaka University) was co-transfected in CHO cells with CD8 plasmid using Lipofectamine Plus (Invitrogen) according to the manufacturer's instructions. 48 h later cells were transferred to the electrophysiology chamber and anti-CD8 coated beads (Dynal Biotech) were added to identify CD8 expressing cells. Expressing cells were voltage clamped using a ramp clamp (see below). CHO cells were used in these experiments, in part, because they express endogenous PAFR.
Chinese hamster ovary cells (CHO) were grown in F-12 medium supplemented with 10% fetal bovine serum. Twenty-four hours prior to transfection, cells were seeded into 6 well plates at 80-90% of confluence. Transfections were carried out with the GeneJammer transfection reagent (Stratagene) according to the manufacturer's instructions. Briefly, cells were washed with PBS and their medium replaced with supplemented F-12 medium (900 μl/well). For each well, GeneJammer (6 μl) was incubated with Opti-MEM (90 μl) followed by the addition of DNA (1 μg). This mixture was then added to the wells and 3 h later an additional 2 ml of supplemented F-12 medium was added. After incubating overnight, the cells were washed and their medium replaced.
Cells were either co-transfected with pCMV-TASK1 together with pEGFP-C1 (1 μg total, 3:1) or transfected with […] or T381A-pTIE (1 μg). 48 h after the transfection the cells were checked under the microscope for green fluorescence. Approximately 20% of the cells were positive for EGFP and these were then used for patch-clamp experiments. Due to the culture-to-culture variability in the expression of TASK-1 current, most comparisons were made on matched controls from the same transfection. Summary results were then obtained by pooling data from several different culture preparations.
(§1) The myocyte suspension or the coverslip with CHO cells was placed into a perfusion chamber, mounted on the stage of an inverted microscope. Unless otherwise indicated, CHO cells were superfused at room temperature with standard external Tyrode's buffer, containing (mM): NaCl, 140; KCl, 5.4; CaCl2, 1; MgCl2, 1; HEPES, 5; glucose, 10; adjusted to pH 7.4. Recordings were begun after the current reached a stable baseline (usually 3 to 4 min after initial cell rupture). In myocytes, TASK-1 current is small and exists in the presence of numerous larger K^+ currents. In order to increase the inward component of TASK-1 current and to block other potassium currents in myocytes, a modified high K^+ external solution (modified Tyrode's) was used to reduce outward rectification of TASK-1 current. The composition of this solution-was (in mM): NaCl, 100; KCl, 50; CaCl2, 1; MgCl2, 1; HEPES, 5; glucose, 10; tetraethylammonium (TEA), 1; CsCl, 5; adjusted to pH 7.4. Membrane potential and current were measured in the whole cell configuration using borosilicate glass pipettes with a tip resistance between […] and filled with a pipette solution containing (mM): aspartic acid, 130; KOH, 146; NaCl, 10; CaCl2, 2; EGTA, 5; HEPES, 10; MGATP, 2; pH 7.2. The stock solutions of C-PAF and of the PKC inhibitor, bisindolylmaleimide (BIM-I; Calbiochem), were prepared in water and diluted to the final concentrations in Tyrode's or modified Tyrode's, as appropriate. The PKC activator, PMA, was prepared in DMSO and then diluted in Tyrode's. […] Myocytes treated with the peptides were monitored continuously beginning immediately after rupture to detect the occurrence of any arrhythmias during dialysis of the peptide. Application of C-PAF to cells treated with the inhibitor peptide was started after the peptide had been permitted to dialyse into the cell (8-10 min after rupture for CHO or 10-12 min after rupture for myocytes).
The current and the voltage protocols were generated using Clampex 8.0 software applied by means of an Axopatch 200-B and a Digidata 1200 interface (Axon Instruments). […]

[3] = target: T2, TASK-1 (Mus musculus, UniProt O35111); test: C-PAF-sensitive steady-state current in murine ventricular myocytes (voltage clamp); type: cell-based
T2 construct: endogenous in cells; host or cells: adult mouse ventricular myocytes (C57/B16 background; WT or PAFR KO)
T2 sequence (O35111 whole entry): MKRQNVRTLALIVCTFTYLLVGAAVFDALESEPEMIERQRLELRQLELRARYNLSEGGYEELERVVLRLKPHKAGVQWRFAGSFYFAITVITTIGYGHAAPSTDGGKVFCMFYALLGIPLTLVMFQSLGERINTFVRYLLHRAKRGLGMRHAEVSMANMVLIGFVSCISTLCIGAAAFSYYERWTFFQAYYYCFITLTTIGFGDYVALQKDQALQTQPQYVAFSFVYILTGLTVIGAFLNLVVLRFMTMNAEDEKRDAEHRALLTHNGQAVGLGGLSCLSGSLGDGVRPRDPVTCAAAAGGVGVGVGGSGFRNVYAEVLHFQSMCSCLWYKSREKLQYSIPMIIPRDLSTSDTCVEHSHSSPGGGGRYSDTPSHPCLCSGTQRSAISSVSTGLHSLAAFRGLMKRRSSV
Experimental: Adult mice, 2-3 months old, were anesthetized with ketamine/xylazine and their hearts were removed according to protocols approved by the Columbia University-IACUC. Experiments were performed on single rod-shaped, quiescent ventricular myocytes dissociated using a standard retrograde collagenase perfusion (Kuznetsov V et al. (1995) Circ Res 76: 40-52) from hearts of mice that were either wild-type (WT), or PAFR knockouts (KO). Both WT and KO mice were bred on a C57/B16 background. The derivation of the KO mice has been described previously (Hoffman, B F et al.(1996) J Cardiovasc Electrophysiol 7:120-133).
Prior to electrophysiological measurements, cells were placed into the perfusion chamber and superfused at room temperature with Tyrode's buffer (in mM: NaCl, 140; KCl, 5.4; CaCl2 1; MgCl2, Hepes, 5; Glucose, 10; pH 7.4). The whole-cell patch clamp technique was used with pipettes having resistances of 1.5-3 MΩ (intracellular solution, in mM: aspartic acid, 130; KOH, 146; NaCl, 10; CaCl2, 2; EGTA, 5; Hepes, 10; MgATP, 2; pH 7.2). Solutions of C-PAF, the PAFR antagonist, CV-6209 (Biomol) and the PKC inhibitor, bisindolylmaleimide I (BIM I; Calbiochem) were prepared in water and diluted in Tyrode's before use. […] A custom-made fast perfusion device was used to exchange the solution around the cell within 1 s (DiFrancesco et al. (1986) J Physiol 377: 61-88).
Current and voltage protocols were generated using Clampex 7.0 software applied by means of an Axopatch 200B amplifier and a Digidata 1200 interface (Axon Instruments). During voltage clamp, steady state current traces were acquired at 500 Hz and final filtered at 10 Hz. During current clamp, membrane voltage was acquired at 5 KHz and filtered at 1 KHz. Ramp clamps were conducted by imposing a voltage ramp (14 mV/s) at a 500 Hz acquisition rate with 1 kHz filtering. Data were analyzed using pCLAMP 8.0 (Axon) and Origin 6.0 (Microcal) and are presented as mean±SEM. Steady-state current was determined by computer calculation of average current over a time period of at least 5 s. In all experiments, the n value indicates the number of myocytes studied, and represents pooled data from at least 2 (voltage clamp) or 3 (current clamp) animals. Student's t-test, one-way ANOVA and χ^2 tests were used; a value of p<0.05 was considered statistically significant. Records have been corrected for the junction potential, which was measured to be 9.8 mV.

[4] = test system: mouse ventricular myocytes; test: Repolarization abnormalities in mouse ventricular myocytes paced at 1 Hz with PKCε peptides; type: cell-based; conditions: peptide in pipette, no added C-PAF
Experimental: Mouse ventricular myocytes were isolated using a retrograde coronary perfusion method previously published (Kuznetsov V et al. (1995) Circ Res 76: 40-52). All the experiments were carried out according to the guidelines issued by the IACUC of Columbia University. Adult mice 2 or 3 months old, were anaesthetized with a xylazine and ketamine mix and heparinized, the heart was quickly removed and the ascending aorta was connected to the outlet of a Langendorff column and perfused with 20-25 ml of a buffer solution (37° C.) containing (mM):NaCl, 112; KCl, 5.4; NaHCO3, 4.2; MgCl2, 1.6; HEPES, 20; glucose, 5.4; NaH2PO4, 1.7; taurine, 10; L-glutamine, 4.1; MEM amino acids solution, 2%; MEM vitamin solution, 1%; adjusted to pH 7.4, and equilibrated with 100% O2. Next, the heart was perfused with an enzyme solution containing collagenase (0.2 mg/ml; Worthington Type II) and trypsin (0.04 mg/ml) at 35° C. for 10-12 min. After this perfusion, the atria were removed and the ventricles minced and transferred to a 50 ml flask with an enzyme solution containing collagenase (0.45 mg/ml), trypsin (0.08 mg/ml), Ca^2+ (0.75 mM) and bovine serum albumin (BSA; 4.8 mg/ml). The flask was shaken vigorously for 5-10 min at 32° C. before the supernatant was removed and the cells were collected by centrifugation, this operation was repeated two or three times and additional disaggregated cells were collected. After centrifugation, the myocytes were resuspended in the buffer solution containing Ca^2+ (0.75 mM) and BSA and stored at room temperature until use. Rod-shaped, Ca^2+-tolerant myocytes, obtained with this procedure, were used within 6 h of dissociation. Measurements were performed only on quiescent myocytes with clear striations
as §1
The current and the voltage protocols were generated using Clampex 8.0 software applied by means of an Axopatch 200-B and a Digidata 1200 interface (Axon Instruments). In current clamp mode, for recording action potentials, the signals were filtered at 1 KHz (low pass Bessel filter) and acquired at a sampling rate of 5 KHz. […]

[5] = held at −10 mV, C-PAF 185 nM, Ba2+ 3 mM, Zn2+ 3 mM, lipids and ATFK 10 μM

Compound: COc1ccc(C[C@H]2NC[C@H](O)[C@H]2OC(C)=O)cc1 [anisomycin]
type of activation of human TREK-1 current [1]: slow-onset activators

Compound: CCCCCCCCCCCCCC(=O)O[C@@H]1[C@@H](C)[C@@]2(O)[C@@H](C=C(CO)C[C@@]3(O)C(=O)C(C)=C[C@@H]23)[C@@H]2C(C)(C)[C@]12OC(C)=O [αPMA, 4α-phorbol 12-myristate 13-acetate]
effect on TASK-1 current [2]: no detectable effect

Compound: CCCCC/C=C\C/C=C\C/C=C\C/C=C\CCCC(=O)C(F)(F)F [ATFK, arachidonyltrifluoromethyl ketone]
effect on C-PAF-sensitive current [3, 5]: no effect

Compound: [Ba+2] [Ba^2+]
effect on C-PAF-sensitive current [3, 5]: significantly reduced

Compound: [Zn+2] [Zn^2+]
effect on C-PAF-sensitive current [3, 5]: significantly reduced

Compound: [Cs+] [Cs^+]
effect on C-PAF-sensitive current ([3]; Cs+ 5 mM, −70 mV): did not reduce

Compound: HDAPIGYD [activator peptide]
cells with repolarization abnormalities / abnormal automaticity [4]: 8 of 9

Compound: CCCCC/C=C\C/C=C\C/C=C\C/C=C\CCCC(=O)NCCO [anandamide]
effect on C-PAF-sensitive current ([3]; anandamide 10 μM in the presence of ATFK 10 μM, −10 mV): significantly reduced | effect on C-PAF-sensitive current [3, 5]: did not significantly inhibit

Now from value to compound:

TREK-1 current in the presence of drug ([1]; ramp −130 to +40 mV, typical of 7 cells): Current was greater
Compound: Cc1ccc(Cl)c(Nc2ccccc2C(=O)O)c1Cl [meclofenamate, Meclofenamic acid]

type of activation of human TREK-1 current [1]: slow-onset activators
Compound: Nc1nc2ccc(OC(F)(F)F)cc2s1 [riluzole]

effect of PAFR antagonist on C-PAF-sensitive current ([3]; CV-6209 100 nM, WT myocytes): blocked
Compound: CCCCCCCCCCCCCCCCCCNC(=O)OCC(COC(=O)N(Cc1cccc[n+]1CC)C(C)=O)OC (stereo not shown) [CV-6209]

effect of PKC inhibitor or inactive analogue on C-PAF-sensitive current ([3]; BIM I 40 and 100 nM, BIM V, −10 mV): not altered
Compound: CN1C(=O)C(c2c[nH]c3ccccc23)=C(c2c[nH]c3ccccc23)C1=O [BIM V]
